This note sets out measurements from patent US9464092B2, “Transient protection of normal cells during chemotherapy” (G1 Therapeutics, Inc., priority 2013, dated 2016).

In data set [1] the target is CDK2/CyclinE (Homo sapiens (Human), UniProt P24941). Put plainly: CDK2/CyclinE kinase assay (Nanosyn, Caliper microfluidic). Format: biochemical. The following applies: for IC50: read-out: CDK2/CycE IC50.
Data set [2] has as its target CDK2/CyclinA (Homo sapiens (Human), UniProt P24941). Put plainly: CDK2/CyclinA kinase assay (Nanosyn, Caliper microfluidic). It counts as biochemical. Conditions: for IC50: read-out: CDK2/CycA IC50. In short, it runs like this: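 Phosphorylation was read by Caliper microfluidic detection. Compounds ran as 12-point dose-responses in singlicate, with staurosporine as reference.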

The subject of data set [3] is HS68 cells (human skin fibroblast cell line (Rb-positive)). Put plainly: G1 arrest (cellular G1 and S-phase) assay. Format: cell-based. The following applies: Homo sapiens, Hs68, HS68 cells. As for the experimental part: For determination of cellular fractions in various stages of the cell cycle following various treatments, HS68 cells (human skin fibroblast cell line (Rb-positive)) were stained with propidium iodide staining solution and run on Dako Cyan Flow Cytometer. The fraction of cells in G0-G1 DNA cell cycle versus the fraction in S-phase DNA cell cycle was determined using FlowJo 7.2 0.2 analysis.
The compounds listed in Table 1 were tested for their ability to arrest HS68 cells at the G1 phase of the cell cycle.

Data set [4] relates to H69 (human small cell lung cancer - Rb-negative) cells. The experiment in a line: Cellular proliferation assay (CellTiter-Glo), H69. It counts as cell-based. Conditions: NCI-H69, 96 h, four days. The method, then:
(§1) Cellular proliferation assays were conducted using the following Rb-negative cancer cell lines: H69 (human small cell lung cancer—Rb-negative) cells or A2058 (human metastatic melanoma cells—Rb-negative). These cells were seeded in Costar (Tewksbury, Mass.) 3093 96 well tissue culture treated white walled/clear bottom plates. Cells were treated with the compounds of Table 1 as nine point dose response dilution series from 10 uM to 1 nM. Cells were exposed to compounds and then cell viability was determined after either four (H69) or six (A2058) days as indicated using the CellTiter-Glo® luminescent cell viability assay (CTG; Promega, Madison, Wis., United States of America) following the manufacturer's recommendations. Plates were read on BioTek (Winooski, Vt.) Syngergy2 multi-mode plate reader. The Relative Light Units (RLU) were plotted as a result of variable molar concentration and data was analyzed using Graphpad (LaJolla, Calif.) Prism 5 statistical software to determine the EC50 for each compound.
(Cellular ATP, detected with luciferase, serves as a proxy for viable cell number.)

Data set [5] deals with A2058 (human metastatic melanoma cells - Rb-negative). Put plainly: Cellular proliferation assay (CellTiter-Glo), A2058. Format: cell-based. Conditions: A2058, 144 h, six days. The method, then:
as §1

Data set [6] addresses CDK4/CyclinD1 (Homo sapiens (Human), UniProt P11802). The experiment in a line: CDK4/CyclinD1 kinase assay (Nanosyn, Caliper microfluidic). The following applies: read-out: CDK4/CycD1 IC50. It counts as biochemical.
Data set [7] addresses CDK6/CyclinD3 (Homo sapiens (Human), UniProt Q00534). Put plainly: CDK6/CyclinD3 kinase assay (Nanosyn, Caliper microfluidic). The following applies: Table 3; read-out: CDK6/CycD3 IC50. It counts as biochemical.
Data set [8] relates to bone marrow progenitors. Put plainly: Carboplatin-induced cytotoxicity in bone marrow (EdU). Conditions: 150 mg/kg oral gavage plus 90 mg/kg carboplatin i.p., 24 hours. It counts as in vivo, FVB/n mice. The method, then:
To assess the effect of transient CDK4/6 inhibition by Compound GG on carboplatin-induced cytotoxicity in the bone marrow, FVB/n mice (n=3 per group) were treated with vehicle control, 90 mg/kg carboplatin by intraperitoneal injection, or 150 mg/kg Compound GG by oral gavage plus 90 mg/kg carboplatin by intraperitoneal injection. 24 hours after treatment bone marrow was harvested and the percent of cycling bone marrow progenitors was measured by EdU incorporation as explained earlier. […] EdU incorporation in control animals was normalized to 100% and compared to EdU incorporation for bone marrow from carboplatin treated animals or carboplatin and Compound GG treated animals.

The test system of data set [9] is HSPCs (bone marrow). The experiment in a line: HSPC proliferation in bone marrow by EdU incorporation after oral gavage. Format: in vivo, mice. As for the experimental part: Mice were then sacrificed at the indicated times (0, 12, 24, 36, or 48 hours following compound administration), and bone marrow was harvested (n=3 mice per time point), as previously described (Johnson et al. J. Clin. Invest. (2010) 120(7), 2528-2536). Four hours before the bone marrow was harvested, mice were treated with 100 μg of EdU by intraperitoneal injection (Invitrogen). Bone marrow mononuclear cells were harvested and immunophenotyped using previously described methods and percent EdU positive cells were then determined (Johnson et al. J. Clin. Invest. (2010) 120(7), 2528-2536). In brief, HSPCs were identified by expression of lineage markers (Lin-), Sca1 (S+), and c-Kit (K+).
Four hours before animals were sacrificed and the bone marrow was harvested, mice were treated with 100 μg of EdU by intraperitoneal injection. Three mice per group were sacrificed at 12 hours and the remaining three animals per group were sacrificed at 24 hours. Results are shown in FIG. 6A as the ratio of EdU positive cells for treated animals at 12 or 24 hour time points compared to control.
Further experiments were completed with Compound T examining dose response and longer periods of compound treatment. […] […].
Both compounds were administered at 150 mg/kg by oral gavage. One hour prior to harvesting bone marrow, EdU was IP injected to label cycling cells. Bone marrow was harvested at 12, 24, 36, and 48 hours after compound treatment and the percentage of EdU positive HSPC cells was determined at each time point.

The subject of data set [10] is RB-intact, Cdk4/6-dependent cell line (WM2664 or tHS68). The experiment in a line: EdU proliferation, RB-intact Cdk4/6-dependent cell line. The following applies: 24 hours.
Data set [11] in a line: Mouse pharmacokinetics (oral gavage / intravenous). Format: in vivo, mice. The following applies: mouse.
Data set [12] has as its system RB-negative SCLC cell lines (H69, H82, H209, H345, NCI417, or SHP-77). The experiment in a line: EdU proliferation, RB-negative SCLC cell lines. Conditions: 24 hours.

Structures are written as SMILES. Like-named read-outs stand apart in the source and are kept apart here.

Sequence of CDK4/CyclinD1 (P11802 whole entry, species assumed): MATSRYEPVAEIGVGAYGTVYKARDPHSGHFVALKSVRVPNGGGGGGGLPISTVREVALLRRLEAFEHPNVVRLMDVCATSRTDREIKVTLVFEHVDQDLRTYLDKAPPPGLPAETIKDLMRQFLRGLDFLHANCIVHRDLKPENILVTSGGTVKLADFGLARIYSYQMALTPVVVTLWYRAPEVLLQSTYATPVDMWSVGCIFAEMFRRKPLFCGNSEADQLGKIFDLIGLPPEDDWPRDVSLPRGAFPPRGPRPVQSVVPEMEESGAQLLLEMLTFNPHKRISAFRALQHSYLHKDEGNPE
Sequence of CDK4/CyclinD1 (P24385 whole entry partner, species assumed): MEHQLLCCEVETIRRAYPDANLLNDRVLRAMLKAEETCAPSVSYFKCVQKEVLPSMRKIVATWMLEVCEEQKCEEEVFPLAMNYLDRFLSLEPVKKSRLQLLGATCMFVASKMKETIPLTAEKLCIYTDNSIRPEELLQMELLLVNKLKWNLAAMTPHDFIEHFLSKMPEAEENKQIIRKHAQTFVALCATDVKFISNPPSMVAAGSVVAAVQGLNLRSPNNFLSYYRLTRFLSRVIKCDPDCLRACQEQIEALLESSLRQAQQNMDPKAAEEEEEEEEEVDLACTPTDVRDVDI
Sequence of CDK6/CyclinD3 (Q00534 whole entry, species assumed): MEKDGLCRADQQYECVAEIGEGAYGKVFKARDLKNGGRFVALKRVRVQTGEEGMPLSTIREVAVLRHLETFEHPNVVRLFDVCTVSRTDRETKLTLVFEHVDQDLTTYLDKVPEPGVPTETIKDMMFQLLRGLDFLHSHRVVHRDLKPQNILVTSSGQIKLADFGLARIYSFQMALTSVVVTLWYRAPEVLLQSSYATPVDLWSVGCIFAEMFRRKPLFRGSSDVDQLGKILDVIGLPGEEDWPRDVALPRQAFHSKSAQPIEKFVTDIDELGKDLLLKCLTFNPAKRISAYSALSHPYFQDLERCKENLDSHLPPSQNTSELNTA
Sequence of CDK6/CyclinD3 (P30281 whole entry partner, species assumed): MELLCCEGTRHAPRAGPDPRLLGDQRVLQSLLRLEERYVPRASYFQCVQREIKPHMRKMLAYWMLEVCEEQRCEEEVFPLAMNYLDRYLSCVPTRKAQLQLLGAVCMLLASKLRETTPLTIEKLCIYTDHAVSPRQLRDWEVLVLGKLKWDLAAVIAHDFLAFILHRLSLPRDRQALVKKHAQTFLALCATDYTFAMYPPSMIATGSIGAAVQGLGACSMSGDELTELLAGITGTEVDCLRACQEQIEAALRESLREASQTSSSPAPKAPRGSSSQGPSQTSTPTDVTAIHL

For orientation: EC50 means the concentration needed to bring the measured effect to its halfway point. A low value points to a more potent agent. As for `CN1CCN(C(=O)c2ccc(Nc3ncc4cc5n(c4n3)C3(CCCC3)CNC5=O)nc2)CC1` [BBB], in [1] (Table 2), the “Fold Selectivity (CDK2/CycE/CDK4)” value came out at 68. In addition, the values for the IC50 in data set [1] (Table 2), in data set [2] (Table 2) and in data set [6] (Table 2) were 187 nM, 85 nM and 2.8 nM, respectively. In data set [2] (Table 2), the “Fold Selectivity (CDK2/CycA/CDK4)” value came out at 31. The 50% effective concentration (EC50) was 230 nM in data set [3], greater than 3000 nM in [4] and greater than 3000 nM in data set [5].

Broadly, the bioavailability is the share of a dose that reaches the circulation, judged against a reference dose that is usually intravenous. The term AUC(0-inf) denotes total exposure, with the tail of the curve extrapolated. Low values mean low exposure, high ones high exposure. One may read the AUC as concentration integrated over time. Low values mean less exposure, high ones more exposure. A word on the Cmax: it is the highest concentration seen after dosing. As usually defined, the Tmax is the time from dosing to the highest level. In the case of `CC(C)N1CCN(c2ccc(Nc3ncc4cc5n(c4n3)C3(CCCCC3)CNC5=O)nc2)CC1` [Compound GG, 2′-((5-(4-isopropylpiperazin-1-yl)pyridin-2-yl)amino)-7′,8′-dihydro-6′H-spiro[cyclohexane-1,9′-pyrazino[1′,2′:1,5]pyrrolo[2,3-d]pyrimidin]-6′-one], the “Fold Selectivity CDK2/CDK4” value in [1] (CDK2/CycE IC50 divided by CDK4/CycD1 IC50) was 3377. Also, the “Fold Selectivity (CDK2/CycE/CDK4)” value in [1] (Table 2) is on record as 3377. Moreover, the IC50 in [1] (Table 2) worked out at 3580 nM; in data set [1] (Table 3), 3580 nM; in data set [7] it was 4.7 nM; in data set [2] (Table 2), 1510 nM; in [2] (Table 3), 1510 nM; in [6] (Table 2) it was 1 nM. In addition, the IC50 in data set [6] (Table 3) turned out to be 1.06 nM. Besides, the “Fold Selectivity (CDK2/CycA/CDK4)” value in [2] (Table 2) stood at 1425. Besides, the “protection of cycling bone marrow progenitors (EdU)” value in data set [8] was “significant protection of bone marrow progenitors”. In [9] (150 mg/kg oral gavage), the “EdU incorporation into HSPCs at 12 and 24 hours compared to control” value is reported as “reduction in EdU incorporation at 12 hours which was starting to return to normal at 24 hours”. For the same compound, the “G1-arrest of bone marrow stem cells (HSPC)” value in data set [9] (oral gavage, mice) was “dose dependent, transient, and reversible G1-arrest”. Also, the “effect on proliferation (EdU, percent of cells in S-phase)” value in data set [10] is reported as “inhibits the Rb-positive cell line (tHS68)”; in [12] it was “does not affect the growth of the Rb-negative cell lines”. Also, in data set [11], the F was determined as 52%. Moreover, the half-life in data set [11] (plasma, po, 30 mg/kg, 30 mg/kg oral gavage, read-out: t1/2 p.o. (converted)) was 3.5 h; in data set [11] (plasma, po, 30 mg/kg, read-out: plasma half-life following oral administration), 3 to 5 h. The bioavailability in data set [11] (plasma, po, 30 mg/kg, read-out: oral bioavailability (F (%))) fell in the range of 52 to 80%. Also, the AUC(0-inf) in data set [11] (plasma, iv, 10 mg/kg i.v.) worked out at 1.1 µM·h. In data set [11] (plasma, iv, 10 mg/kg i.v.), this compound displayed a clearance of 82 mL/min/kg. Besides, the Vd in [11] (plasma, iv, 10 mg/kg i.v., read-out: Vss) worked out at 7.5 L/kg. Further, the area under the curve (AUC) in [11] (plasma, 30 mg/kg oral gavage) was found to be 1.9 µM·h. This compound also displayed a Cmax in [11] (plasma, 30 mg/kg oral gavage) of 1900 nM. Moreover, the Tmax in [11] (plasma, 30 mg/kg oral gavage) worked out at 1 h.
